Measurements reported in US6908911B1, “Antibacterial agents” (British Biotech Pharmaceuticals Limited, priority 1999, dated 2005).
≈ marks a conversion by molar mass, not a printed value.

Test system: E. coli strain DH5α
Experiment: Minimal inhibitory concentration (MIC) against E. coli
Assay type: cell-based
Conditions: Escherichia coli; 2×YT broth, 37° C., 18 hours; lowest drug concentration that inhibited visible growth
Protocol: Minimal inhibitory concentrations (MIC) of inhibitors against E. coli strain DH5α (Genotype; F-φ80dlacZΔM15Δ(lacZYA-argF)U169 deoR recA1 endA1 hsdR17(rk^−,mk^+)phoA supE44λ^− thi-1 gyrA96 relA1) obtained from GibcoBRL Life Technologies, Enterobacter cloacae (American Type Culture Collection number 13047), Klebsiella pneumoniae (American Type Culture Collection number 13883) or Staphylococcus capitis (American Type Culture Collection number 35661) were determined as follows. Stock solutions of test compound (Compounds 1 and 2 from Examples 1 and 2 respectively (both isomer A)) and three standard laboratory antibiotics, carbenicillin (Sigma, catalogue No. C3416), kanamycin (Sigma, catalogue No. K4000) and chloramphenicol (Sigma, catalogue No. C1919), were prepared by dissolution of each compound in dimethylsulfoxide at 10 mM. […] Cell densities were adjusted to absorbance at 660 nm (A660)=0.1; the optical density-standardised preparations were diluted 1:1000 in 2×YT broth; and each well inoculated with 0.05 ml of the diluted bacteria. […] The MIC (μM) was recorded as the lowest drug concentration that inhibited visible growth.

CCCC[C@H](CN(O)C=O)C(=O)N(C)C1CCN(C)CC1 [Example 7]
MIC: 12.5 µM (≈ 3.74 µg/mL)
